{"source": "patent US5227372A", "about": "“Method for retaining ophthalmological agents in ocular tissues” (Children's Medical Center Corporation, priority 1990, dated 1993)", "key": {"[1]": {"assay": "Fluorescence of neovascularized corneal vessels after injection into the carotid artery (Example 4)", "format": "in vivo, rabbit", "conditions": "injected into the carotid artery; fluorescein alone", "experimental": "The water soluble complex described in Example 3 was injected into the carotid artery of rabbits who had neovascularization in the cornea induced by a pellet of endotoxin implanted one week earlier. After a single injection, the new vessels in the cornea were still flourescing green 3 hours later.\nSimilarly, when the cyclodextrin-fluorscein complex, dissolved in an aqueous solution of methylcellulose (0.45%), was applied to the rabbit cornea, Descemet's membrane in the cornea also glowed green more than 3 hours later when histological sections of the corneas were examined."}, "[2]": {"assay": "Fluorescence of Descemet's membrane in histological sections of corneas after application to the cornea (Example 4)", "format": "in vivo, rabbit", "conditions": "fluorescein alone"}, "[3]": {"conditions": "intravenous injection; fluorescein alone; cited from earlier work"}, "[4]": {"conditions": "polymeric film; cited from earlier work"}, "[5]": {"conditions": "polyacrylamide and copolymer of acrylamide, N-vinylpyrrolidone and ethyl acrylate matrix; cited from earlier work"}, "[6]": {"conditions": "rabbit, in vivo", "procedure": "A polyethylene ring was glued to the cornea in anesthesized rabbits. Saline containing 1 mg/ml of [S^35 ]-β-cyclodextrin tetradecasulfate was added to each well for up to 120 minutes, after which the wells were removed and the corneas vigorously rinsed with saline. The anterior chamber fluid (ACF) was then aspirated. The corneas were then exised and digested in collegenase and the corneal supernatunt counted."}, "[7]": {"conditions": "rabbit, in vivo", "remark": "listed apart in the source"}, "[8]": {"tested_on": "fibroblast growth factor (FGF)", "conditions": "sulfated cyclodextrin column; Shing et al.; cited from earlier work"}}, "data": [{"molecule": "O=C1OC2(c3ccc(O)cc3Oc3cc(O)ccc32)c2ccccc21", "note": "[fluorescein]", "values": [{"measurement": "disappearance from the corneal vessels", "setting": "[1]", "value": "disappeared from the corneal vessels within a few minutes"}, {"measurement": "presence in Descemet's membrane", "setting": "[2]", "value": "not found in Descemet's membrane"}, {"measurement": "time to clearance from the blood vessels", "setting": "[3]", "value": "less than one"}]}, {"molecule": "CC[C@@H]1C(=O)OC[C@@H]1Cc1cncn1C", "note": "[pilocarpine]", "values": [{"measurement": "increase in ocular bioavailability of pilocarpine over aqueous solution", "setting": "[4]", "value": "two"}, {"measurement": "increase in ocular bioavailability of pilocarpine", "setting": "[5]", "value": "three"}]}, {"molecule": "β-cyclodextrin tetradecasulfate", "values": [{"measurement": "time after removal of wells up to which label is detected in the ACF and in the corneas", "setting": "[6]", "value": "up to three"}, {"measurement": "time course of penetration in both the corneas and ACF", "setting": "[6]", "value": "increased bearly with time"}, {"measurement": "concentration in the aqueous humor relative to cornea", "setting": "[7]", "value": "parallels that in the cornea, but at lower levels"}, {"measurement": "time course in the cornea", "setting": "[7]", "value": "rapid rise in the cornea of labelled β-cyclodextrin tetradecasulfate and then a gradual fall-off"}, {"measurement": "affinity for FGF", "setting": "[8]", "value": "high affinity"}]}]}
